Data taken from patent US6599713B1, “Method for quantitating leukocyte count in whole blood sample” (priority 1999, dated 2003).

Tested on: white blood cells contained in a whole blood sample
Assay: MPO-releasing effects of various surfactants on whole blood, ELISA (Examples 3 to 5)
Type: cell-based, human
Details: Example 3 (Table 3): 500 μl blood + 500 μl 1% (w/v) surfactant solution, 60 minutes on ice, mean ± SD of 3
Description: 10 ml of healthy human whole blood was collected using a 28 G winged intravenous injection needle (manufactured and sold by Terumo Corporation, Japan), and immediately mixed with 10 mg of EDTA-2K (manufactured and sold by Dojin Laboratories, Japan), and the resultant EDTA-containing whole blood sample was subjected to the below-described various measurements within 1 hour from the blood collection.
500 μl of the blood was put in a 2-ml Eppendorf tube, and 500 μl of a 1% (w/v) aqueous surfactant solution was added to the tube, and the resultant mixture was stirred for 2 seconds by a Vortex mixer. Subsequently, the mixture was allowed to stand for 60 minutes on ice to thereby lyze the white blood cells. After the lysis of the white blood cells, 100 μl of the mixture was taken out and added to 900 μl of a PBS solution containing dissolved therein 1% BSA (trade name: “Sigma fraction V”, manufactured and sold under the brand of SIGMA™, U.S.A.). The resultant mixture was stirred by a Vortex mixer, and then 10 μl of the mixture was taken out and diluted 2,000-fold with 1% BSA/PBS solution. The resultant diluted mixture was subjected to a measurement by ELISA.
The outline of the ELISA is as follows. A 5 μg/ml PBS solution of an anti-MPO antibody was put into the wells of a Nunc Immuno Plate (manufactured and sold by Nalge Nunc International, Denmark) in an amount of 100 μl per well. The solution in each well was sealed and subjected to a reaction for 18 hours at 4° C. thereby immobilizing the primary antibody. The wells were washed with a washing solution (0.05% Tween™ 20/PBS) and then subjected to blocking for 1 hour at room temperature by using 200 μl of a blocking solution (1% BSA/PBS), and then washed twice with the washing solution. […] The wells were washed 5 times with a washing solution, and 100 μl of a just-prepared TMB solution (manufactured and sold by Kirkegaad & Perry Laboratories, U.S.A.) was added thereto to effect a color reaction. 2 Minutes after the start of the color reaction, 100 μl of a 1 N sulfuric acid solution (manufactured and sold by Nacalai Tesque, Inc., Japan) was added to the wells to thereby terminate the reaction. Then, the absorbance at 450 nm was measured by means of a plate reader (manufactured and sold by Bio-Rad Laboratories, U.S.A.).
With respect to the measurement of the MPO concentration of the sample, MPO (manufactured and sold by Elastin Products Co., INC., U.S.A.) was added to the sample so that the final concentration of the added MPO became 5 ng/ml or 10 ng/ml, and the resultant mixture was measured with respect to the MPO concentration. From the obtained value of MPO concentration, a calibration curve for each sample was obtained. The obtained calibration curve was corrected, based on its relationship with a calibration curve obtained with respect to a standard MPO solution, and the corrected calibration curve of each sample was used to determine the MPO concentration of the whole blood. The measurement was conducted 3 times, and a mean value±standard deviation was obtained.

“α-[4-(1,1,3,3,-Tetramethylbutyl)phenyl]-ω-hydroxypoly(oxy-1,2-ethanediyl) [Triton ™ X-100]” was tested, and the “MPO concentration of whole blood” value was 6.43 ± 1.25 µg/mL.
